Patent US20020091095A1, “Modulation of Fas and FasL expression” (priority 1999, published 2002)

Columns and labels:
Fas [1] = assay: Fas expression at the cell surface by flow cytometry, Jurkat cells; format: cell-based; conditions: Jurkat human leukemia T cells, 100 μg/ml sequence, 48 h, treated vs control cells
Method: (§1) Cancer cells and PBMCs were seeded in 6 well flat-bottom microplates and were maintained at 37° C. in a 5% CO2 atmosphere. Unless stated otherwise, 2×10^5 cells/ml were incubated for 48 h with 0 μg/ml (control) or 100 μg/ml ([…]) (treated) of the sequences.
(§2) Fas and FasL expression were measured by flow cytometry using anti-Fas FITC-conjugated monoclonal antibodies and anti-FasL PE-conjugated monoclonal antibodies in a FACScalibur Flow Cytometer (Becton Dickinson, San Jose, Calif., USA) using the CELLQuest program (Becton Dickinson).
(§3) Results are expressed as percentage (%) increase in the expression of Fas and of FasL measured on treated cells compared to control cells.
(§4) Jurkat human leukemia T cells are an atypical multi-drug resistant human suspension tumor cell model.

FasL [2] = assay: FasL expression at the cell surface by flow cytometry, Jurkat cells; format: cell-based; conditions: Jurkat human leukemia T cells, 100 μg/ml sequence, 48 h, treated vs control cells
Method: as §1, §2, §3, §4

Fas [3] = assay: Fas expression at the cell surface by flow cytometry, PBMCs; format: cell-based, human; conditions: 100 μg/ml sequence, 48 h, treated vs control cells
Method: (§5) Peripheral blood mononuclear cells (hereinafter, “PBMCs”) were isolated from human blood by Ficoll-Hypaque (Amersham Pharmacia Biotech, Baie d'Urfée, Québec, Canada) density gradient centrifugation.
as §1, §2, §3

FasL [4] = assay: FasL expression at the cell surface by flow cytometry, PBMCs; format: cell-based, human; conditions: 100 μg/ml sequence, 48 h, treated vs control cells
Method: as §5, §1, §2, §3

Fas [5] = assay: Fas expression at the cell surface by flow cytometry, T-24 cells; format: cell-based, human; conditions: T-24 bladder cancer cells, 100 μg/ml sequence, 48 h, treated vs control cells
Method: as §1, §2, §3
(§6) T-24 bladder cancer cells are a p53 mutated human cell line T-24 cells (1.0×10^5 cells/ml) were incubated with the 6 base sequences shown in Table 4.

FasL [6] = assay: FasL expression at the cell surface by flow cytometry, T-24 cells; format: cell-based, human; conditions: T-24 bladder cancer cells, 100 μg/ml sequence, 48 h, treated vs control cells
Method: as §1, §2, §3, §6

Fas [7] = assay: Fas expression at the cell surface by flow cytometry, UMUC-3 cells; format: cell-based, human; conditions: UMUC-3 bladder cancer cells, 100 μg/ml sequence, 48 h, treated vs control cells
Method: as §1, §2, §3
(§7) UMUC-3 bladder cancer cells are a P-glycoprotein overexpressing human cell line.

FasL [8] = assay: FasL expression at the cell surface by flow cytometry, UMUC-3 cells; format: cell-based, human; conditions: UMUC-3 bladder cancer cells, 100 μg/ml sequence, 48 h, treated vs control cells
Method: as §1, §2, §3, §7

Fas [9] = assay: Fas expression at the cell surface by flow cytometry, OVCAR-3 cells; format: cell-based, human; conditions: OVCAR-3 ovarian cancer cells, 100 μg/ml sequence, 48 h, treated vs control cells
Method: as §1, §2, §3
(§8) OVCAR-3 ovarian cancer cells are a p53 mutated, p21/waf-1/Cip deleted, metastatic human solid tumor model.

FasL [10] = assay: FasL expression at the cell surface by flow cytometry, OVCAR-3 cells; format: cell-based, human; conditions: OVCAR-3 ovarian cancer cells, 100 μg/ml sequence, 48 h, treated vs control cells
Method: as §1, §2, §3, §8

Fas [11] = assay: Fas expression at the cell surface by flow cytometry, SK-OV-3 cells; format: cell-based, human; conditions: SK-OV-3 ovarian cancer cells, 100 μg/ml sequence, 48 h, treated vs control cells
Method: as §1, §2, §3
(§9) SK-OV-3 ovarian cancer cells are a p53 mutated, p21/waf-1/Cip deleted, p15^ink4B,p16^ink4 deleted metastatic human solid tumor model.

FasL [12] = assay: FasL expression at the cell surface by flow cytometry, SK-OV-3 cells; format: cell-based, human; conditions: SK-OV-3 ovarian cancer cells, 100 μg/ml sequence, 48 h, treated vs control cells
Method: as §1, §2, §3, §9

Fas [13] = assay: Fas expression at the cell surface by flow cytometry, LNCaP cells; format: cell-based, human; conditions: LNCaP prostate cancer cells, 100 μg/ml sequence, 48 h, treated vs control cells
Method: as §1, §2, §3
(§10) LNCaP prostate cancer cells are a TGF-beta 1 receptor negative, […], metastatic human solid tumor model.

FasL [14] = assay: FasL expression at the cell surface by flow cytometry, LNCaP cells; format: cell-based, human; conditions: LNCaP prostate cancer cells, 100 μg/ml sequence, 48 h, treated vs control cells
Method: as §1, §2, §3, §10

Fas [15] = assay: Fas expression at the cell surface by flow cytometry, MCF-7 cells; format: cell-based, human; conditions: MCF-7 breast cancer cells, 100 μg/ml sequence, 48 h, treated vs control cells
Method: as §1, §2, §3
(§11) MCF-7 human breast cancer cells are a caspase-3 negative, estrogen-dependent human solid tumor model.

FasL [16] = assay: FasL expression at the cell surface by flow cytometry, MCF-7 cells; format: cell-based, human; conditions: MCF-7 breast cancer cells, 100 μg/ml sequence, 48 h, treated vs control cells
Method: as §1, §2, §3, §11

Sequence | % INCREASE Fas (Fas [1]) [%] | % INCREASE FasL (FasL [2]) [%] | % INCREASE Fas (Fas [3]) [%] | % INCREASE FasL (FasL [4]) [%] | % INCREASE Fas (Fas [5]) [%] | % INCREASE FasL (FasL [6]) [%] | % INCREASE Fas (Fas [7]) [%] | % INCREASE FasL (FasL [8]) [%] | % INCREASE Fas (Fas [9]) [%] | % INCREASE FasL (FasL [10]) [%] | % INCREASE Fas (Fas [11]) [%] | % INCREASE FasL (FasL [12]) [%] | % INCREASE Fas (Fas [13]) [%] | % INCREASE FasL (FasL [14]) [%] | % INCREASE Fas (Fas [15]) [%] | % INCREASE FasL (FasL [16]) [%]
AAGTAA [SEQ ID NO:7] | −4 | −21 | 13 | −26 | 16 | −10 | 6 | −1 | 16 | −2 | −12 | −22 | 0 | −16 | 12 | 21
ATGTAT [SEQ ID NO:10] | 246 | 393 | 377 | 457 | 90 | 150 | 42 | 95 | 93 | 114 | 34 | 33 | 44 | 68 | 129 | 214
CCGTCC [SEQ ID NO:8] | 107 | 151 | 1046 | 1147 | 282 | 459 | 55 | 149 | 83 | 95 | 58 | 32 | 0 | 311 | 200 | 322
CTGTCT [SEQ ID NO:11] | 203 | 413 | 310 | 476 | 107 | 165 | 45 | 156 | 52 | 93 | 15 | 26 | 17 | 55 | 73 | 128
GGAAGG [SEQ ID NO:14] | 67 | 88 | 112 | 162 | 46 | 14 | 1 | 8 | 15 | 1 | −15 | −31 | 26 | −4 | 62 | 84
GGCCGG [SEQ ID NO:15] | 75 | 41 | 6 | −29 | 56 | 18 | 23 | 58 | 19 | −2 | 0 | −27 | 12 | −4 | 63 | 78
GGTGGG [SEQ ID NO:4] | 61 | 22 | 57 | 59 | 106 | 29 | 62 | 113 | 41 | 14 | −1 | −17 | 21 | 8 | 106 | 110
